According to PubChem BioAssay (NCI):
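Assay format: 96-well plates, 48-hour exposure. GI50: concentration for 50% inhibition of growth. TGI: concentration producing complete growth inhibition.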

How the values were obtained:
Assay in all cases: DTP human tumour cell line panel, 48 h
A549 NSCLC = test system: A549 NSCLC
DLD-1 colon = test system: DLD-1 colon
HL-60(TB) leukemia = test system: HL-60(TB) leukemia
LXFL 529 NSCLC = test system: LXFL 529 NSCLC
MOLT-4 leukemia = test system: MOLT-4 leukemia
OVCAR-3 ovarian = test system: OVCAR-3 ovarian
RXF 393 renal = test system: RXF 393 renal
SK-MEL-5 melanoma = test system: SK-MEL-5 melanoma
HS 578T breast = test system: HS 578T breast
NCI/ADR-RES ovarian = test system: NCI/ADR-RES ovarian

| SMILES | TGI (A549 NSCLC) [µM] | TGI (DLD-1 colon) [µM] | TGI (HL-60(TB) leukemia) [µM] | TGI (LXFL 529 NSCLC) [µM] | TGI (MOLT-4 leukemia) [µM] | TGI (OVCAR-3 ovarian) [µM] | TGI (RXF 393 renal) [µM] | TGI (SK-MEL-5 melanoma) [µM] | GI50 (A549 NSCLC) [µM] | GI50 (HL-60(TB) leukemia) [µM] | GI50 (HS 578T breast) [µM] | TGI (HS 578T breast) [µM] | GI50 (MOLT-4 leukemia) [µM] | GI50 (NCI/ADR-RES ovarian) [µM] | TGI (NCI/ADR-RES ovarian) [µM] | GI50 (OVCAR-3 ovarian) [µM] | GI50 (RXF 393 renal) [µM] | GI50 (SK-MEL-5 melanoma) [µM] | GI50 (DLD-1 colon) [µM] | GI50 (LXFL 529 NSCLC) [µM] |
| --- | --- | --- | --- | --- | --- | --- | --- | --- | --- | --- | --- | --- | --- | --- | --- | --- | --- | --- | --- | --- |
| C#CC1(O)CCC2[C@@H]3CCc4cc(Oc5nc(F)nc(-c6c7ccccc7cn6C)n5)ccc4C3CC[C@@]21C (some centres not stated) | > 100 | > 73.5 | > 100 | > 100 | > 100 | > 100 | > 100 | – | – | – | – | – | – | – | – | – | – | – | – | – |
| Cc1ccc(C)c(NC(=O)CC2SC(=Nc3ccccc3Cl)NC2=O)c1 (configuration not stated) | > 100 | > 100 | > 100 | > 100 | > 100 | > 100 | > 100 | > 100 | – | – | – | – | – | – | – | – | – | – | – | – |
| O=c1[nH]c(=O)n(C2OC(CO)C(O)C2O)cc1OCC(F)(F)F (configuration not stated) | > 100 | > 100 | > 100 | > 100 | > 100 | > 100 | > 100 | > 100 | – | – | – | – | – | – | – | – | – | – | – | – |
| CC(=O)N(O)Cc1ccccc1 | > 100 | > 100 | > 100 | > 100 | > 100 | > 100 | > 100 | > 100 | – | – | – | – | – | – | – | – | – | – | – | – |
| c1ccc(P(=C2c3ccccc3-c3ccccc32)(c2ccccc2)c2ccccc2)cc1 | 29.6 | 65.5 | 4.36 | 20 | – | 6.13 | 93.8 | 3.96 | – | – | – | – | – | – | – | – | – | – | – | – |
| CCOc1ccc(O)cc1[P+](c1ccccc1)(c1ccccc1)c1ccccc1 | 43.2 | 17.6 | – | 12.1 | – | 11.4 | 17.9 | 4.7 | – | – | – | – | – | – | – | – | – | – | – | – |
| O=c1[nH]c(=O)n(C2CC(O)C(CO)O2)cc1C#Cc1ccc(F)cc1 (configuration not stated) | > 100 | > 100 | – | > 100 | > 100 | > 100 | – | > 100 | – | – | – | – | – | – | – | – | – | – | – | – |
| COc1cc2c(cc1C1=NC(C)(C)CO1)OCO2 | > 100 | > 100 | > 100 | > 100 | > 100 | > 100 | > 100 | > 100 | – | – | – | – | – | – | – | – | – | – | – | – |
| CCN(CC)CCn1[nH]c2c3ccc(=O)cc3sc3c(NCCN)ccc1c32 | 14.5 | 10.1 | – | 1.77 | 0.383 | 8.17 | 3.43 | 2.91 | – | – | – | – | – | – | – | – | – | – | – | – |
| COC1OC(C)C2OC(C)(C)OC2C1OC(C)=O (configuration not stated) | > 100 | > 100 | > 100 | > 100 | > 100 | > 100 | > 100 | > 100 | – | – | – | – | – | – | – | – | – | – | – | – |
| O=C(/C=C/C12c3ccccc3C(c3ccccc31)C1C(=O)NC(=O)C12)c1ccc(Cl)cc1 (configuration not stated) | 10.1 | – | 8.86 | – | 15.5 | 3.26 | 2.56 | 3.08 | 2.4 | 1.47 | 1.94 | 7.22 | 1.7 | 1.77 | 4.93 | 1.63 | 1.2 | 1.7 | – | – |
| Nc1ccccc1C#C/C=C\C#Cc1c(F)c(F)c(F)c(F)c1F | 25.5 | – | 57.1 | – | 34.8 | 32.9 | 22 | 45 | 11.6 | 28.8 | 32.7 | > 100 | 1.76 | 19.5 | 41.2 | 15.3 | 4.74 | 20 | – | – |
| CCOC(=O)C(CNc1ccc(O)cc1)NC(=O)c1ccccc1 (configuration not stated) | > 100 | > 100 | 73.3 | > 100 | > 100 | > 100 | > 100 | > 100 | – | – | – | – | – | – | – | – | – | – | – | – |
| O=C(NCc1ccco1)c1cccc(NC2=C(Cl)C(=O)N(Cc3ccccc3)C2=O)c1 | > 100 | – | 22.3 | – | > 100 | 7.71 | 26.2 | 23.3 | 19.9 | 5.52 | 15.4 | > 100 | 5.19 | 6.53 | 34.3 | 2.44 | 4.22 | 5.26 | – | – |
| O=C(CC(=O)c1cccc(Cl)c1)c1cccc(Cl)c1 | > 100 | – | > 100 | – | > 100 | 6.09 | > 100 | > 100 | 4.68 | 1.99 | 3.88 | > 100 | 2.08 | 2.06 | 6.35 | 1.67 | 3.69 | 3.87 | – | – |
| O=C(N/N=C/c1cc(Cl)cc(Cl)c1[O-])c1ccccc1.O=C(N/N=C/c1cc(Cl)cc(Cl)c1[O-])c1ccccc1.[Co+2] | > 100 | > 100 | 8.89 | > 100 | 21.4 | > 100 | – | > 100 | 28.8 | 2.62 | – | – | 4.43 | – | – | 3.18 | – | 29 | 14.7 | 7.38 |
| Oc1[nH]c2ccccc2c1N=Nc1c(F)c(F)c(F)c(F)c1F | > 100 | – | 9.15 | – | 31.8 | > 100 | > 100 | > 100 | – | – | – | > 100 | – | – | > 100 | – | – | – | – | – |
| O=C(C/C(CCC(=O)N(Cc1ccccc1)Cc1ccccc1)=N/Nc1ccc([N+](=O)[O-])cc1[N+](=O)[O-])c1ccccc1 | > 100 | > 100 | > 100 | > 100 | 73.9 | > 100 | – | – | – | – | – | – | – | – | – | – | – | – | – | – |
| COc1cc(/C=C/c2cc(/C=C/c3ccc(O)c(OC)c3)n(C(=O)Nc3ccc(Cl)cc3)n2)ccc1O | 10.3 | – | 0.982 | – | 3.47 | 1.07 | 0.789 | 1.25 | 0.653 | 0.292 | 0.732 | 5.63 | 0.374 | 0.363 | 3.68 | 0.329 | 0.261 | 0.306 | – | – |
| S=C=NCCc1ccccc1 | 6.38 | 0.324 | 2.65 | 0.774 | – | 2.09 | 1.42 | 1.39 | – | – | – | – | – | – | – | – | – | – | – | – |
| Cc1cc(Nc2cc(N3CCN(C)CC3)nc(Sc3ccc(NC(=O)C4CC4)cc3)n2)n[nH]1 | > 10 | – | > 10 | – | > 10 | > 10 | > 10 | > 10 | 2.18 | 0.283 | 3.46 | > 10 | 4.21 | > 10 | > 10 | 3.46 | 2.17 | 3.19 | – | – |
